Among the test systems are M19-MEL melanoma; DLD-1 colon; DMS 273 small cell lung; SNB-78 CNS; RXF-631 renal; DMS 114 small cell lung; XF 498 CNS; LXFL 529 NSCLC; MDA-N.
Common to all, as to assay: growth of human tumour cells (NCI), 48 h

The structures appear in SMILES notation. Several values for one entry are separate records, joined by “and”; a condition that tells them apart may be missing. Identical values can stand only once.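 A five-concentration, 48-hour dose response in 96-well plates underlies each endpoint, interpolated linearly between surrounding concentrations. At the GI50, growth is halved. TGI denotes the concentration required for complete inhibition of growth.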

Turning to `Nc1nc(=Nc2ccccc2)ss1`, the TGI in the assay with M19-MEL melanoma, in the assay on DLD-1 colon, in the assay with DMS 273 small cell lung, in the assay on SNB-78 CNS, in the assay on RXF-631 renal and in the assay on DMS 114 small cell lung was greater than 100 µM in each case. The TGI with XF 498 CNS and with LXFL 529 NSCLC was greater than 100 µM throughout.
Take `CCOC(=O)C(C(=O)OCC)=c1sc(=C(C(=O)OCC)C(=O)OCC)s1`: the TGI in the assay with M19-MEL melanoma, with DLD-1 colon, in the assay with DMS 273 small cell lung, in the assay with SNB-78 CNS and with LXFL 529 NSCLC was greater than 100 µM in each case.
Turning to `CC1=CC(=O)c2ccc(C)cc2C1=O`, the TGI in the assay with MDA-N stood at 1.17 µM.
With `COC(=O)Cc1cc(=O)n2c([nH]c3ccccc32)c1C#N`, the TGI in the assay with M19-MEL melanoma, in the assay with DLD-1 colon, with DMS 273 small cell lung, in the assay on SNB-78 CNS, in the assay with DMS 114 small cell lung and with XF 498 CNS was greater than 100 µM in each case.
With `CCCCCCCCCCCCC(CCCCCCCCCCCC)OP(=O)(O)O`, the TGI in the assay with M19-MEL melanoma, in the assay on DLD-1 colon, in the assay on DMS 273 small cell lung, in the assay on SNB-78 CNS, with RXF-631 renal and in the assay on DMS 114 small cell lung was greater than 100 µM throughout. Further, the TGI in the assay with XF 498 CNS and in the assay with LXFL 529 NSCLC was greater than 100 µM in each case.
With `O=S(=O)(CCCCl)SCCCCl`, the TGI in the assay with MDA-N was greater than 76.2 µM.
The same measure, in the same setting: for `Nc1nc(-c2cccs2)cs1` the value was greater than 100 µM.
`Cc1ccc(NC(=O)CC2C(=O)Nc3ccccc3S2=O)c(C)c1` (stereo unspecified): the TGI was greater than 69.1 µM in the assay on M19-MEL melanoma; greater than 76.5 µM in the assay with DLD-1 colon; greater than 54.1 µM in the assay with DMS 273 small cell lung; 47.6 µM with SNB-78 CNS; greater than 71.3 µM in the assay on RXF-631 renal; 34.4 µM in the assay on DMS 114 small cell lung. Further, the results for the TGI with XF 498 CNS and with LXFL 529 NSCLC were 28.7 µM and 61.6 µM, respectively.
In the case of `CC1=Nc2ccccc2C12C(c1ccccc1)C(c1ccccc1)C(=O)N1c3ccccc3CC12` (stereo unspecified), the TGI in the assay on DLD-1 colon was greater than 100 µM; with DMS 273 small cell lung it was greater than 100 µM; in the assay on SNB-78 CNS, greater than 100 µM; in the assay on RXF-631 renal, greater than 100 µM; with DMS 114 small cell lung it was greater than 100 µM; with XF 498 CNS, 87.2 µM. Further, in the assay with LXFL 529 NSCLC, the TGI is greater than 100 µM.
Regarding `CC(C)c1cccc(C(C)C)c1NC(=O)CCC(=O)NN`, the TGI with M19-MEL melanoma, with DLD-1 colon, with DMS 273 small cell lung, with SNB-78 CNS, with DMS 114 small cell lung and in the assay on LXFL 529 NSCLC was greater than 100 µM each time.
Turning to `COC(=O)[C@@]12C=CC(=O)[C@H]3C[C@@H](C(C(C)C)C1)[C@]32OC` (stereo partly specified), the TGI in the assay with M19-MEL melanoma, with DLD-1 colon, in the assay on DMS 273 small cell lung, with SNB-78 CNS, in the assay on RXF-631 renal and in the assay with DMS 114 small cell lung was greater than 100 µM throughout. For the same compound, the TGI in the assay on XF 498 CNS and with LXFL 529 NSCLC was greater than 100 µM in each case.
`COc1ccc(C2C3=C(COC3=O)Oc3cc4c(cc32)OCO4)cc1` (stereo unspecified): the TGI was greater than 100 µM in the assay on M19-MEL melanoma; greater than 100 µM in the assay with DLD-1 colon; greater than 100 µM with DMS 273 small cell lung; greater than 100 µM with SNB-78 CNS; 38.2 µM in the assay on DMS 114 small cell lung; greater than 100 µM in the assay on XF 498 CNS.
Consider `Cn1nc2ccccc2cc1=O`, for which the TGI in the assay with M19-MEL melanoma, in the assay on DLD-1 colon, with DMS 273 small cell lung, in the assay with SNB-78 CNS, in the assay on RXF-631 renal and in the assay with DMS 114 small cell lung was greater than 100 µM in each case. For the same compound, the TGI with XF 498 CNS is greater than 100 µM.
Regarding `COC(C)(C)[C@H](O)C(O)CC(C)[C@@H]1CCC23CC12CCC1[C@@]2(C)CCC(OC(C)=O)C(C)(C)C2CC(OC2OC(COC(C)=O)C(O)C(O)C2O)[C@]13C` (stereo partly specified), the GI50 is 4.04 µM in the assay with M19-MEL melanoma; 3.13 µM in the assay on DLD-1 colon; 7.7 µM in the assay on DMS 273 small cell lung; 14 µM with SNB-78 CNS; 3.62 µM in the assay with DMS 114 small cell lung; 6.23 µM in the assay on LXFL 529 NSCLC. Further, the TGI with M19-MEL melanoma was 10.2 µM and 13.8 µM; in the assay on DLD-1 colon, 6.29 µM and 9.73 µM; in the assay with DMS 273 small cell lung, 10.2 µM and 23.4 µM; in the assay with SNB-78 CNS it was 17.9 µM and 31.7 µM; with RXF-631 renal it was 12.8 µM; in the assay on DMS 114 small cell lung it was 8.65 µM and 12.8 µM. The TGI with LXFL 529 NSCLC was 12.8 µM and 19.2 µM.
Consider `c1ccc2c(CNCCCCCCCCCCCCNCc3cccc4ccccc34)cccc2c1`, for which the TGI is 3.22 µM in the assay on M19-MEL melanoma; 3.31 µM with DLD-1 colon; greater than 100 µM in the assay on DMS 273 small cell lung; 3.41 µM in the assay on SNB-78 CNS; 3.11 µM in the assay with XF 498 CNS; 3.23 µM with LXFL 529 NSCLC.
`C=C(CN(C)C)C(=O)c1ccc(Oc2ccccc2)cc1`: the TGI with MDA-N worked out at 9.38 µM; in the assay on M19-MEL melanoma it was 14.8 µM; with DLD-1 colon it was 6.96 µM; in the assay with DMS 273 small cell lung, 46.8 µM; with SNB-78 CNS, 41.9 µM; in the assay on RXF-631 renal, 35.9 µM. Besides, the TGI with XF 498 CNS was 27.9 µM; with LXFL 529 NSCLC, 5.04 µM.
For `c1ccc2c(c1)[nH]c1c2ncc2[nH]c3ccccc3c21`, the TGI with M19-MEL melanoma is 15.8 µM; in the assay with DLD-1 colon it was 19.7 µM; with DMS 273 small cell lung it was 9.39 µM; with SNB-78 CNS, 27.2 µM; with RXF-631 renal, 5.05 µM; with DMS 114 small cell lung, 6.69 µM. Also, the TGI with XF 498 CNS amounted to 3.3 µM; in the assay on LXFL 529 NSCLC, 13.2 µM.
As to `O=C(C=Nc1ccccc1C(=O)[O-])c1cccs1.O=C(C=Nc1ccccc1C(=O)[O-])c1cccs1.[Zn+2]`, the TGI in the assay with DLD-1 colon and with DMS 273 small cell lung was greater than 100 µM each time.
Turning to `FC(F)(F)c1nc(-c2ccccc2)oc1Sc1oc(-c2ccccc2)nc1C(F)(F)F`, the TGI in the assay with M19-MEL melanoma, with DLD-1 colon, in the assay on DMS 273 small cell lung, in the assay on SNB-78 CNS, with DMS 114 small cell lung and with XF 498 CNS was greater than 100 µM throughout. This compound gave a TGI in the assay with LXFL 529 NSCLC greater than 100 µM.

The values are drawn from PubChem BioAssay (NCI).
